The source of these data is US20060089395A1, “Nf-kb activation inhibitors” (priority 2002, published 2006).

Data set [1] relates to NF-κ B. Kind of data set: Inhibitory activity of NF-κ B activation, luciferase reporter assay in HepG2 under TNF-α stimulation. It is filed as cell-based, human. The settings on record: Homo sapiens. The procedure, abridged: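 Readout is firefly luciferase luminescence, expressed as inhibition versus compound-free wells. Before this, HepG2 cells carrying a transiently transfected 5×NF-κB-site luciferase plasmid (6–24 h post-transfection) received test compound plus TNF-α (40 ng/ml) for 4 h.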

Data set [2] deals with Thy-1 nephritis. Kind of data set: Rat Thy-1 nephritis model. It is filed as in vivo. The settings on record: intraperitoneal administration of less than 15 mg/kg.
The subject of data set [3] is myocarditis. Kind of data set: Rat myocarditis model immunized with pig heart-derived cardiac myosin. In kind it is in vivo. The settings on record: intraperitoneal administration at 10 mg/kg.
In data set [4] the test system is artery abrasion restenosis. Put plainly: Mouse artery abrasion restenosis model. It is filed as in vivo. As to conditions: intraperitoneal administration at 10 mg/kg.
The subject of data set [5] is IL-6. Kind of data set: Inhibition of IL-6 production by TNFα stimulation in synovial fibroblasts derived from a rheumatoid patient (ELISA). It is filed as cell-based, human. As to conditions: Homo sapiens, Fibroblast, 72 h; synovial fibroblasts, 10 ng/ml TNFα, 3 days; read-out: Inhibition against Mediator Release IC50(nM) IL-6. As to the method:
(§1) Synovial fibroblasts (Human Synoviocyte (RA-Positive), Toyobo, T4040-05) were cultured for 3 days in a medium containing 10 ng/ml of TNFα and a test compound. IL-6 and IL-8 in the supernatant were measured by the ELISA method, and PGE2 (prostaglandin E2) was measured by the EIA method.
A general note: An ELISA detects its analyte on a solid surface through an enzyme-linked reagent.

Data set [6] relates to myocardial ischemia reperfusion disorder. Kind of data set: Inhibitory test against myocardial ischemia reperfusion disorder in rats. It is filed as in vivo, rat. As to conditions: 5 mg/kg intraperitoneally; 24 hours after reperfusion. As to the method: Left coronary artery of 7 to 9 week-old rat was ligated to induce ischemic state. After 25 minutes, a test substance suspended in an appropriate diluent or the diluent alone (negative control) was intraperitoneally administered, and after 30 minutes, the animal was reperfused. After 24 hours, a rate of necrosis of an ischemic part of the cardiac muscle was measured.

Data set [7] concerns type II collagen induced arthritis. Put plainly: Inhibitory test against type II collagen induced arthritis in mice. It is filed as in vivo, Balb/c mice. The settings on record: 10 mg/kg intraperitoneally once in two days; day 44; score of the control = 100%. The protocol: Balb/c mice were immunized with heterologous type II collagen and Freund's complete adjuvant by subcutaneous or intraperitoneal injection. At 21 days after the treatment, these mice were immunized again with heterologous type II collagen and Freund's incomplete adjuvant by subcutaneous or intraperitoneal injection to develop arthritis.
A test substance suspended in an appropriate diluent or the diluent alone (negative control) was administered intraperitoneally once in two days from the day of the first immunization, and as for arthritis developed after the second immunization, clinical symptoms of each ankle joint of all foots were recorded day after day as numerous scores. When the score of the control measured on day 44 after administration of 10 mg/kg of the medicament of the present invention was expresses as 100%, rates of exacerbation (%) of the clinical symptoms of arthritis were 37.5 (Compound No. 4), 76.5 (Compound No. 90), 56.2 (Compound No. 11), 64.0 (Compound No. 88), and 0.0 (Compound No. 83).

In data set [8] the test system is Vascular smooth muscle cells of normal coronary artery (Cryo CASMC). Put plainly: Inhibitory test against proliferation of vascular smooth muscle cells of normal coronary artery under proliferation stimulation (MTS assay). It is filed as cell-based. As to conditions: FGF and EGF stimulation, 72 hours. The protocol:
Vascular smooth muscle cells of normal coronary artery (Cryo CASMC) were cultured for 2 hours in the presence or absence of a test substance in DMEM medium containing 0.5% of FBS and insulin (5 u g/ml). Then, FGF and EGF were added for proliferation stimulation. The mixture was cultured for 72 hours and proliferation of the cells were measured by the MTS assay. The results aree shown in the following

Data set [9] concerns intestinal ischemic reperfusion-caused hepatopathy. Put plainly: Rat intestinal ischemic reperfusion-caused hepatopathy model. In kind it is in vivo. The settings on record: intraperitoneal administration of 10 mg/kg.
Data set [10] deals with IL-8. Put plainly: Inhibition of IL-8 production by TNFα stimulation in synovial fibroblasts derived from a rheumatoid patient (ELISA). The settings on record: Homo sapiens, Fibroblast, 72 h; synovial fibroblasts, 10 ng/ml TNFα, 3 days; read-out: Inhibition against Mediator Release IC50(nM) IL-8. In kind it is cell-based, human. The protocol: as §1
Data set [11] relates to PGE2. Put plainly: Inhibition of PGE2 production by TNFα stimulation in synovial fibroblasts derived from a rheumatoid patient (EIA). As to conditions: Homo sapiens, Fibroblast, 72 h; synovial fibroblasts, 10 ng/ml TNFα, 3 days; read-out: Inhibition against Mediator Release IC50(nM) PGE2. It is filed as cell-based, human. As to the method:
as §1

The mark [12] stands for this setting: 1 μg/mL, HepG2, TNF-α (40 ng/ml), 4 hours, read-out: Inhibitory Ratio of NF-κ B Activation(%) Drug Concentration 1 μg/mL.
Where [13] appears, read: 10 μg/mL, HepG2, TNF-α (40 ng/ml), 4 hours, read-out: Inhibitory Ratio of NF-κ B Activation(%) Drug Concentration 10 μg/mL.

Like-named read-outs stand apart in the source and are kept apart here.

Usually IC50 stands for the concentration needed to halve the response being measured. `O=C(Nc1cc(C(F)(F)F)cc(C(F)(F)F)c1)c1cc(Cl)ccc1O` [Compound No.4, N-[3,5-bis(trifluoromethylphenyl)]-5-chloro-2-hydroxybenzamide]: the inhibition at 0.1 µg/mL in data set [1] (HepG2, 4 h, 0.1 μg/ml, comparison table, reporter assay, read-out: Inhibitory Ratio of NF-κB Activation (%) 0.1 μg/ml) came to 60.9%. Moreover, the inhibition at 1 µg/mL turned out to be 95.7% in data set [1] (HepG2, 4 h, 1 μg/ml, comparison table, reporter assay, read-out: Inhibitory Ratio of NF-κB Activation (%) 1 μg/ml) and 95.7% in data set [1] (setting [12]). For the same molecule, the inhibition at 10 µg/mL turned out to be 97.5% in [1] (HepG2, 4 h, 10 μg/ml, comparison table, reporter assay, read-out: Inhibitory Ratio of NF-κB Activation (%) 10 μg/ml) and 97.5% in data set [1] (setting [13]). For the same molecule, the renal protective action result in data set [2] is recorded as “exhibited a renal protective action”. Moreover, in [3], the “inhibition of the onset of myocarditis” value is “significantly also inhibited the onset of myocarditis”. In addition, in [4], the “inhibition of proliferation of vascular endothelial cells and vascular smooth muscle cells” value was “significantly inhibited proliferation of vascular endothelial cells and vascular smooth muscle cells”. In addition, the IC50 in [5] was 294 nM; in [10] it was 450 nM; in data set [11], 388 nM. Also, the “inhibition of the necrosis of the cardiac muscle in comparison with the control” value in data set [6] is listed as 60%. Also, the “rates of exacerbation (%) of the clinical symptoms of arthritis” value in [7] is recorded as 37.5%. Further, the “Inhibitory Ratio of Proliferation(%) Compound Concentration 250 nM” value in data set [8] amounted to 87.9%. Moreover, the “Inhibitory Ratio of Proliferation(%) Compound Concentration 500 nM” value in [8] stood at 92.2%. The “TNFα concentration in blood” value in data set [9] is reported as “lowered”. Moreover, in data set [9], the “endotoxic levels in blood” value is reported as “lowered endotoxic levels”. In addition, the inhibition of hepatopathy entry in data set [9] is reported as “significantly inhibited hepatopathy”.
As a reminder, the melting point is the temperature, or range, at which the solid turns liquid. Take `O=C(Nc1cc(C(F)(F)F)cc(C(F)(F)F)c1)c1cc(C(=O)N2CCC(Cc3ccccc3)CC2)ccc1O` [Compound No. 40, N-[3,5-Bis(trifluoromethyl)phenyl]-2-hydroxy-5-(4-benzylpiperidine-1-carbonyl)benzamide]: the melting point fell in the range of 179 to 180 °C. In addition, the inhibition at 1 µg/mL in [1] (setting [12]) was found to be 44.9%. For the same molecule, in data set [1] (setting [13]), the inhibition at 10 µg/mL worked out at 96%.
The matching figures for `CC(=O)Oc1ccccc1C(=O)Nc1cc(Cl)cc(Cl)c1` [Compound No. 120, 2-acetoxy-N-(3,5-dichlorophenyl)benzamide]: 218 to 219 °C, 88.6% and 97.5%.
Turning to `CC(C)(C)c1ccc(O)c(C(=O)Nc2cc(C(F)(F)F)cc(C(F)(F)F)c2)c1` [compound 11, N-[3,5-Bis(trifluoromethyl)phenyl]-5-[(1,1-dimethyl)ethyl]-2-hydroxybenzamide], the inhibition at 1 µg/mL in data set [1] (setting [12]) stood at 92.9%. The inhibition at 10 µg/mL in [1] (setting [13]) amounted to 98.3%. Further, the IC50 in data set [5] worked out at 247 nM; in data set [10] it was 377 nM; in [11], 389 nM. In data set [7], the “rates of exacerbation (%) of the clinical symptoms of arthritis” value was 56.2%. The “Inhibitory Ratio of Proliferation(%) Compound Concentration 250 nM” value in [8] is listed as 86.7%. The “Inhibitory Ratio of Proliferation(%) Compound Concentration 500 nM” value in data set [8] was found to be 91.4%.
